tested on: HBV rcDNA; assay: HepDE19 assay with bDNA quantitation of HBV rcDNA; assay type: cell-based, hepatitis B virus; settings: HepDE19 assay, inhibition of formation of rcDNA; read-out: DE-19bDNA EC50
Experimental: HepDE19 Assay with bDNA Quantitation of HBV rcDNA:
HepDE19 cell culture system is a HepG2 (human hepatocarcinoma) derived cell line that supports HBV DNA replication and cccDNA formation in a tetracycline (Tet)-regulated manner and produces HBV rcDNA and a detectable reporter molecule dependent on the production and maintenance of cccDNA (Guo, et al., 2007, J. Virol. 81:12472-12484).
HepDE19 (50,000 cells/well) were plated in 96-well collagen-coated tissue-culture treated microtiter plates in DMEM/F12 medium supplemented with 10% fetal bovine serum, 1% penicillin-streptomycin and 1 μg/mL tetracycline and incubated in a humidified incubator at 37° C. and 5% CO2 overnight. Next day, the cells were switched to fresh medium without tetracycline and incubated for 4 hours at 37° C. and 5% CO2. The cells were treated with fresh Tet-free medium with compounds at concentrations starting at 25 μM and a serial, […], 8-point, titration series in duplicate. The final DMSO concentration in the assay was 0.5%. The plates were incubated for 7 days in a humidified incubator at 37° C. and 5% CO2. Following a 7 day-incubation, the level of rcDNA present in the inhibitor-treated wells was measured using a Quantigene 2.0 bDNA assay kit (Affymetrix, Santa Clara, Calif.) with HBV specific custom probe set and manufacturers instructions. Concurrently, the effect of compounds on cell viability was assessed using replicate plates, plated at a density of 5,000 cells/well and incubated for 4 days, to determine the ATP content as a measure of cell viability using the cell-titer glo reagent (CTG; Promega Corporation, Madison, Wis.) as per manufacturer's instructions. The plates were read using a Victor luminescence plate reader (PerkinElmer Model 1420 Multilabel counter) and the relative luminescence units (RLU) data generated from each well was calculated as % inhibition of the untreated control wells and analyzed using XL-Fit module in Microsoft Excel to determine EC50 and EC90 (bDNA) and CC50 (CTG) values using a 4-parameter curve fitting algorithm.

Row | SMILES | EC50 [µM]
1 | CC(NC(=O)Nc1ccc(F)c(Cl)c1)c1c[nH]c(=O)c2ccccc12 (single isomer, unassigned) [Compound 11, 1-(3-Chloro-4-fluorophenyl)-3-(1-(1-oxo-1,2-dihydroisoquinolin-4-yl)ethyl)urea] | 4.7
2 | CCN(C(=O)Nc1ccc(F)c(Cl)c1)C(C)c1cnc(OC)c2ccccc12 (single isomer, unassigned) [Compound 22, 3-(3-Chloro-4-fluorophenyl)-1-ethyl-1-(1-(1-methoxyisoquinolin-4-yl)ethyl)urea] | 9.6
3 | CCN(C(=O)Nc1ccc(F)c(Cl)c1)C(C)c1cnc(OC)c2ccccc12 (single isomer, unassigned) [Compound 23, 3-(3-Chloro-4-fluorophenyl)-1-ethyl-1-(1-(1-methoxyisoquinolin-4-yl)ethyl)urea] | 0.27
4 | CCN(C(=O)Nc1ccc(F)c(Cl)c1)C(C)c1c[nH]c(=O)c2ccccc12 (single isomer, unassigned) [Compound 24, 3-(3-Chloro-4-fluorophenyl)-1-ethyl-1-(1-(1-oxo-1,2-dihydroisoquinolin-4-yl)ethyl)urea] | 3.2
5 | CCN(C(=O)Nc1ccc(F)c(Cl)c1)C(C)c1c[nH]c(=O)c2ccccc12 (single isomer, unassigned) [Compound 25, 3-(3-Chloro-4-fluorophenyl)-1-ethyl-1-(1-(1-oxo-1,2-dihydroisoquinolin-4-yl)ethyl)urea] | 0.02
6 | CCC(c1cnc(OC)c2ccccc12)N(CC)C(=O)Nc1ccc(F)c(Cl)c1 (single isomer, unassigned) [Compound 36, 3-(3-Chloro-4-fluorophenyl)-1-ethyl-1-(1-(1-methoxyisoquinolin-4-yl)propyl)urea] | 2.1
7 | CCC(c1cnc(OC)c2ccccc12)N(CC)C(=O)Nc1ccc(F)c(Cl)c1 (single isomer, unassigned) [Compound 38, 3-(3-Chloro-4-fluorophenyl)-1-ethyl-1-(1-(1-methoxyisoquinolin-4-yl)propyl)urea] | 18
8 | CCN(C(=O)Nc1ccc(F)c(Cl)c1)C(c1cnc(OC)c2ccccc12)C1CC1 (single isomer, unassigned) [Compound 40, 3-(3-Chloro-4-fluorophenyl)-1-(cyclopropyl(1-methoxyisoquinolin-4-yl)methyl)-1-ethylurea] | 20
9 | CCN(C(=O)Nc1ccc(F)c(Cl)c1)C(c1cnc(OC)c2ccccc12)C(C)C (single isomer, unassigned) [Compound 45, 3-(3-Chloro-4-fluorophenyl)-1-ethyl-1-(1-(1-methoxyisoquinolin-4-yl)-2-methylpropyl)urea] | 19
10 | COc1ncc(C(C)N(C(=O)Nc2ccc(F)c(Cl)c2)C2CC2)c2ccccc12 (single isomer, unassigned) [Compound 56, 3-(3-Chloro-4-fluorophenyl)-1-cyclopropyl-1-(1-(1-methoxyisoquinolin-4-yl)ethyl)urea] | 13
11 | COc1ncc(C(C)N(C(=O)Nc2ccc(F)c(Cl)c2)C2CC2)c2ccccc12 (single isomer, unassigned) [Compound 57, 3-(3-Chloro-4-fluorophenyl)-1-cyclopropyl-1-(1-(1-methoxyisoquinolin-4-yl)ethyl)urea] | 0.24
12 | CCN(C(=O)Nc1ccc(F)c(Cl)c1)C(c1cnc(OC)c2ccccc12)C1CC1 (single isomer, unassigned) [Compound 58, 3-(3-Chloro-4-fluorophenyl)-1-(cyclopropyl(1-methoxyisoquinolin-4-yl)methyl)-1-ethylurea] | 3.5
13 | CCN(C(=O)Nc1ccc(F)c(Cl)c1)C(c1ccccc1)c1cnc(OC)c2ccccc12 (single isomer, unassigned) [Compound 59, 3-(3-Chloro-4-fluorophenyl)-1-ethyl-1-((1-methoxyisoquinolin-4-yl)(phenyl)methyl)urea] | 22
14 | CCN(C(=O)Nc1ccc(F)c(Cl)c1)C(c1ccccc1)c1cnc(OC)c2ccccc12 (single isomer, unassigned) [Compound 60, 3-(3-Chloro-4-fluorophenyl)-1-ethyl-1-((1-methoxyisoquinolin-4-yl)(phenyl)methyl)urea] | 8.8
15 | CCCCN(C(=O)Nc1ccc(F)c(Cl)c1)C(C)c1cnc(OC)c2ccccc12 (single isomer, unassigned) [Compound 61, 1-Butyl-3-(3-chloro-4-fluorophenyl)-1-(1-(1-methoxyisoquinolin-4-yl)ethyl)urea] | 0.08

same assay, conditions: Hepatitis B virus, HepDE19, HepDE19 assay, inhibition of formation of rcDNA; read-out: DE-19bDNA EC50

Row | SMILES | EC50 [µM]
16 | CC(NC(=O)Nc1ccc(F)c(Cl)c1)c1c[nH]c(=O)c2ccccc12 (single isomer, unassigned) [Compound 10, 1-(3-Chloro-4-fluorophenyl)-3-(1-(1-oxo-1,2-dihydroisoquinolin-4-yl)ethyl)urea] | 3.4
17 | COc1ncc(C(C)N(C)C(=O)Nc2ccc(F)c(Cl)c2)c2ccccc12 (single isomer, unassigned) [Compound 30, 3-(3-chloro-4-fluorophenyl)-1-(1-(1-methoxyisoquinolin-4-yl)ethyl)-1-methylurea] | 0.56
18 | CCN(C(=O)Nc1ccc(F)c(Cl)c1)C(c1cnc(OC)c2ccccc12)C(C)C (single isomer, unassigned) [Compound 44, 3-(3-Chloro-4-fluorophenyl)-1-ethyl-1-(1-(1-methoxyisoquinolin-4-yl)-2-methylpropyl)urea] | 25

same assay, conditions: Hepatitis B virus, HepDE19, HepDE19 assay, inhibition of formation of relaxed circular DNA (rcDNA), bDNA quantitation; read-out: DE-19bDNA EC50

Row | SMILES | EC50 [µM]
19 | CC(C)CN(C(=O)Nc1ccc(F)cc1)C(C)c1cnc(-n2cncn2)c2ccccc12 (racemic) [Compound 301, 1-(1-(1-(1H-1,2,4-Triazol-1-yl)isoquinolin-4-yl)ethyl)-3-(4-fluorophenyl)-1-isobutylurea] | 0.051
20 | CC(c1cnc(-n2ccnn2)c2ccccc12)N(C)C(=O)Nc1ccc(F)c(Cl)c1 (racemic) [Compound 354, 1-(1-(1-(1H-1,2,3-triazol-1-yl)isoquinolin-4-yl)ethyl)-3-(3-chloro-4-fluorophenyl)-1-methylurea] | 0.13
21 | CC(C)CN(C(=O)Nc1ccc(F)c(Cl)c1)C(C)c1cnc(-n2ccnn2)c2ccccc12 (racemic) [Compound 355, 1-(1-(1-(1H-1,2,3-Triazol-1-yl)isoquinolin-4-yl)ethyl)-3-(3-chloro-4-fluorophenyl)-1-isobutylurea] | 0.018
22 | CC(c1c[nH]c(=O)c2c(F)c(F)ccc12)N(CCS(N)(=O)=O)C(=O)Nc1ccc(F)c(Cl)c1 (racemic) [Compound 393, 2-(3-(3-chloro-4-fluorophenyl)-1-(1-(7,8-difluoro-1-oxo-1,2-dihydroisoquinolin-4-yl)ethyl)ureido) ethane-1-sulfonamide] | 0.037

same assay, conditions: Hepatitis B virus, HepDE19, read-out: DE-19bDNA EC50 (μM), HepDE19 assay, inhibition of formation of rcDNA

Row | SMILES | EC50 [µM]
23 | CCN(C(=O)Nc1ccc(F)c(Cl)c1)C(c1c[nH]c(=O)c2ccccc12)C(C)C (single isomer, unassigned) [Compound 54, 3-(3-Chloro-4-fluorophenyl)-1-ethyl-1-(2-methyl-1-(1-oxo-1,2-dihydroisoquinolin-4-yl)propyl)urea] | 20

same assay, conditions: read-out: DE-19bDNA EC50; HepDE19 assay, inhibition of formation of rcDNA

Row | SMILES | EC50 [µM]
24 | CCC(c1c[nH]c(=O)c2ccccc12)N(CC)C(=O)Nc1ccc(F)c(Cl)c1 (single isomer, unassigned) [Compound 37, 3-(3-chloro-4-fluorophenyl)-1-ethyl-1-(1-(1-oxo-1,2-dihydroisoquinolin-4-yl)propyl)urea] | 0.26
25 | CCC(c1c[nH]c(=O)c2ccccc12)N(CC)C(=O)Nc1ccc(F)c(Cl)c1 (single isomer, unassigned) [Compound 39, 3-(3-Chloro-4-fluorophenyl)-1-ethyl-1-(1-(1-oxo-1,2-dihydroisoquinolin-4-yl)propyl)urea] | 14
26 | CCN(C(=O)Nc1ccc(F)c(Cl)c1)C(c1c[nH]c(=O)c2ccccc12)C1CC1 (single isomer, unassigned) [Compound 46, 3-(3-Chloro-4-fluorophenyl)-1-(cyclopropyl(1-oxo-1,2-dihydroisoquinolin-4-yl)methyl)-1-ethylurea] | 23
27 | CCN(C(=O)Nc1ccc(F)c(Cl)c1)C(c1c[nH]c(=O)c2ccccc12)C1CC1 (single isomer, unassigned) [Compound 49, 3-(3-Chloro-4-fluorophenyl)-1-(cyclopropyl(1-oxo-1,2-dihydroisoquinolin-4-yl)methyl)-1-ethylurea] | 0.5
28 | CCN(C(=O)Nc1ccc(F)c(Cl)c1)C(c1c[nH]c(=O)c2ccccc12)C(C)C (single isomer, unassigned) [Compound 55, 3-(3-Chloro-4-fluorophenyl)-1-ethyl-1-(2-methyl-1-(1-oxo-1,2-dihydroisoquinolin-4-yl)propyl)urea] | 11

Source: patent publication US20230045421A1 (priority 2018, published 2023)
